In patent US20100179128A1, “XANTHINE DERIVATIVES AS SELECTIVE HM74A AGONISTS” (priority 2005, published 2010):

Target: T1, Human HM74A (Homo sapiens, UniProt Q8TDS4)
T1 construct: expressed in transfected cells; P2 membrane fractions
Assay: [35S]-GTPγS binding assay on HM74A membranes (10 μl and 50 μl formats)
Format: biochemical
Conditions: 10 μl and/or 50 μl assay, in which they were tested; +/−0.3 log unit; read-out: pEC50 in the [35S]-GTPγS binding assays (converted)
Experimental: For transient transfections, HEK293T cells (HEK293 cells stably expressing the SV40 large T-antigen) were maintained in DMEM containing 10% foetal calf serum and 2 mM glutamine. Cells were seeded in 90 mm culture dishes and grown to 60-80% confluence (18-24 h) prior to transfection. Human HM74A (GenBank™ accession number AY148884) was subcloned in to a mammalian expression vector (pcDNA3; Invitrogen) and transfected using Lipofectamine reagent. For transfection, 9 μg of DNA was mixed with 30 μl Lipofectamine in 0.6 ml of Opti-MEM (Life Technologies Inc.) and was incubated at room temperature for 30 min prior to the addition of 1.6 ml of Opti-MEM. Cells were exposed to the Lipofectamine/DNA mixture for 5 h and 6 ml of 20% (v/v) foetal calf serum in DMEM was then added. Cells were harvested 48 h after transfection. Pertussis toxin treatment was carried out by supplementation into media at 50 ngml^−1 for 16 h. All transient transfection studies involved co-transfection of receptor together with the Gi/o G protein, Go1α.
For generation of stable cell lines the above method was used to transfect CHO-K1 cells seeded in six well dishes grown to 30% confluence. These cells were maintained in DMEM F-12 HAM media containing 10% foetal calf serum and 2 mM glutamine. 48 h post-transfection the media was supplemented with 400 μg/ml Geneticin (G418, Gibco) for selection of antibiotic resistant cells. Clonal CHO-K1 cell lines stably expressing HM74A were confirmed by [^35S]-GTPγS binding measurements, following the addition of nicotinic acid.
P2 membrane preparation—Plasma membrane-containing P2 particulate fractions were prepared from cell pastes frozen at −80° C. after harvest. All procedures were carried out at 4° C. Cell pellets were resuspended in 1 ml of 10 mM Tris-HCl and 0.1 mM EDTA, pH 7.5 (buffer A) and by homogenisation for 20 s with a Ultra Turrax followed by passage (5 times) through a 25-gauge needle. Cell lysates were centrifuged at 1,000 g for 10 min in a microcentrifuge to pellet the nuclei and unbroken cells and P2 particulate fractions were recovered by microcentrifugation at 16,000 g for 30 min. P2 particulate fractions were resuspended in buffer A and stored at −80° C. until required.
[^35S]-GTPγS binding—assays were performed at room temperature in 384-well format based on methods described previously, (Wieland, T. and Jakobs, K. H. (1994) Methods Enzymol. 237, 3-13). Briefly, the dilution of standard or test compounds were prepared and added to a 384-well plate in a volume of 10 μl. Membranes (HM74A or HM74) were diluted in assay buffer (20 mM HEPES, 100 mM NaCl, 10 mM MgCl2, pH7.4) supplemented with saponin (60 μg/ml), Leadseeker WGA beads (Amersham; 250 μg/well) and 10 μM GDP, so that the 20 μl volume added to each well contains 5 μg of membranes. [^35S]-GTPγS (1170 Ci/mmol, Amersham) was diluted (1:1500) in assay buffer and 20 μl added to each well. Following the addition of the radioligand, the plates were sealed, pulse spun and incubated for 4 hours at room temperature. At the end of the incubation period the plates were read on a Leadseeker machine (VIEWLUX PLUS; Perkin-Elmer) to determine the levels of specific binding.
These assays were refined by reducing the final assay volume to 10 μl. For this 10 μl assay a revised protocol was used. This involved the use of only 100 nl of standard or test compound per well of a 384-well plate and 1.5 μg membrane and 100 μg Leadseeker WGA beads. For the low volume protocol, membrane, beads and [^35S]-GTPγS were mixed together and then 10 μl of this mix were dispensed to each well. Incubation and plate read were identical for the 10 μl and 50 μl assays.
All exemplified compounds were tested in one or both of the [^35S]-GTPγS binding assays described above (i.e. the 10 μl and 50 μl assays).
Data was analysed by curve fitting as carried out using a Four Parameter Logistical equation using the XC50 software package (max 2 points deleted from any one curve). […]

T1 sequence (Q8TDS4 whole entry): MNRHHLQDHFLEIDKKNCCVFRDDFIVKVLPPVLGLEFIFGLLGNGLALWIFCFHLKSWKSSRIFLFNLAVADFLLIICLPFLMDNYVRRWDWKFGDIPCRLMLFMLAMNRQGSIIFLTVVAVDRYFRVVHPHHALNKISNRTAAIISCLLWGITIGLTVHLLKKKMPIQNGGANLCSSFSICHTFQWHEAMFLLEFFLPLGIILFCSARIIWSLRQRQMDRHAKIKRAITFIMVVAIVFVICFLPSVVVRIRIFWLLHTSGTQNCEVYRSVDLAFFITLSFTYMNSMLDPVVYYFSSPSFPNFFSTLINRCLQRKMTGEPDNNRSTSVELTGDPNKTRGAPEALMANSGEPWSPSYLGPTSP

Compound | EC50 [µM]
O=c1c2[nH]c(Cl)nc2n(CCN2CCCCC2)c(=O)n1CCCc1nc(Cc2ccc(F)cc2F)no1 [8-chloro-1-(3-{3-[(2,4-difluorophenyl)methyl]-1,2,4-oxadiazol-5-yl}propyl)-3-[2-(1-piperidinyl)ethyl]-3,7-dihydro-1H-purine-2,6-dione] | > 50.1
CN(C)C(C)(C)Cn1c(=O)n(CCCc2nc(Cc3ccc(F)cc3F)no2)c(=O)c2[nH]c(Cl)nc21 [8-chloro-1-(3-{3-[(2,4-difluorophenyl)methyl]-1,2,4-oxadiazol-5-yl}propyl)-3-[2-(dimethylamino)-2-methylpropyl]-3,7-dihydro-1H-purine-2,6-dione] | > 50.1
O=c1c2[nH]c(Cl)nc2n(CCN2CCCC2)c(=O)n1CCCc1nc(Cc2ccc(F)cc2F)no1 [8-chloro-1-(3-{3-[(2,4-difluorophenyl)methyl]-1,2,4-oxadiazol-5-yl}propyl)-3-[2-(1-pyrrolidinyl)ethyl]-3,7-dihydro-1H-purine-2,6-dione] | > 50.1

Other lines, results leading:

EC50 [µM] | Compound
> 50.1 | O=c1c2[nH]c(Cl)nc2n(CCN2CCCCCC2)c(=O)n1CCCc1nc(Cc2ccc(F)cc2F)no1 [8-chloro-1-(3-{3-[(2,4-difluorophenyl)methyl]-1,2,4-oxadiazol-5-yl}propyl)-3-[2-(hexahydro-1H-azepin-1-yl)ethyl]-3,7-dihydro-1H-purine-2,6-dione]
> 50.1 | CN1CCN(CCCn2c(=O)n(CCCc3nc(Cc4ccc(F)cc4F)no3)c(=O)c3[nH]c(Cl)nc32)CC1 [8-chloro-1-(3-{3-[(2,4-difluorophenyl)methyl]-1,2,4-oxadiazol-5-yl}propyl)-3-[3-(4-methyl-1-piperazinyl)propyl]-3,7-dihydro-1H-purine-2,6-dione]
> 50.1 | CN(C)CCn1c(=O)n(CCCc2nc(Cc3ccc(F)cc3F)no2)c(=O)c2[nH]c(Cl)nc21 [8-chloro-1-(3-{3-[(2,4-difluorophenyl)methyl]-1,2,4-oxadiazol-5-yl}propyl)-3-[2-(dimethylamino)ethyl]-3,7-dihydro-1H-purine-2,6-dione]
> 50.1 | CN(C)CCCn1c(=O)n(CCCc2nc(Cc3ccc(F)cc3F)no2)c(=O)c2[nH]c(Cl)nc21 [8-chloro-1-(3-{3-[(2,4-difluorophenyl)methyl]-1,2,4-oxadiazol-5-yl}propyl)-3-[3-(dimethylamino)propyl]-3,7-dihydro-1H-purine-2,6-dione]
